In one assay the target is T1, FKBP51 (Homo sapiens, UniProt Q13451).
T1 sequence (Q13451 42-130 limits assumed): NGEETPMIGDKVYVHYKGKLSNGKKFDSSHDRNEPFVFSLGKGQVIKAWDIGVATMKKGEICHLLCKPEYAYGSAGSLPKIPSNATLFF
As to the kind of experiment: Fluorescence polarization binding assay, FK1-domain of FKBP51WT with tracer F4. Set-up: Purified FK1-domains of FKBP51WT (4.5 nM) with F4 (3 nM), FKBP52WT (400 nM) with F2 (20 nM); made in house; host or cells: E. coli BL21(DE3)pLysS. Conditions: compounds B01-C25; read-out: Affinity(Ki) for FKBP51. The procedure:
(§1) The target protein was also diluted in this assay buffer at double the highest concentration required for the final sample. This protein stock was used for a 1:1 serial dilution.
(§2) The inventive compound was dissolved in DMSO to reach a 100-times concentrated stock solution. This was used for a 1:1 serial dilution in DMSO.
(§3) For FKBP12, −51, and −52 the binding assays were performed in duplicates in the plate format.
(§4) The competition curves were analyzed by using SigmaPlot9. Data were fitted to a four parameter logistic curve to deduce the IC50 values. […] A=(Amax−Amin)/[L]t×(([L]t×((2×((Klig+Kcomp+[L]t+[I]t−[R]t)^2−3×(Kcomp×([L]t−[R]t)+Klig×([I]t−[R]t)+Klig×Kcomp))^0.5×COS(ARCCOS((−2×(Klig+Kcomp+[L]t+[I]t−[R]t)^3+9×(Klig+Kcomp+[L]t+[I]t−[R]t)×(Kcomp×([L]t−[R]t)+Klig×([I]t−[R]t)+Klig×Kcomp)−27×(−1×Klig×Kcomp×[R]t))/(2×((((Klig+Kcomp+[L]t+[I]t−[R]t)^2−3×(Kcomp×([L]t−[R]t)+Klig×([I]t−[R]t)+Klig×Kcomp))^3)^0.5)))/3))−(Klig+Kcomp+[L]t+[I]t−[R]t)))/((3×Klig)+((2×((Klig+Kcomp+[L]t+[I]t−[R]t)^2−3×(Kcomp×([L]t−[R]t)+Klig×([I]t−[R]t)+Klig×Kcomp))^0.5×COS(ARCCOS((−2×(Klig+Kcomp+[L]t+[I]t−[R]t)^3+9×(Klig+Kcomp+[L]t+[I]t−[R]t)×(Kcomp×([L]t−[R]t)+Klig×([I]t−[R]t)+Klig×Kcomp)−27×(−1×Klig×Kcomp×[R]t))/(2×((((Klig+Kcomp+[L]t+[I]t−[R]t)^2−3×(Kcomp×([L]t−[R]t)+Klig×([I]t−[R]t)+Klig×Kcomp))^3)^0.5)))/3))−(Klig+Kcomp+[L]t+[I]t−[R]t))))+Amin
(§5) In this equation Klig and Kcomp stand for the Kd values of the used tracer or competing inhibitor, [I]t is referring to the total concentration of the titrated inhibitor.
(§6) Inhibition constants were measured in a fluorescence polarization binding assay by titrating the compounds.

A further assay has as its target T2, FKBP52 (Homo sapiens, UniProt Q02790).
T2 construct: Purified FK1-domains of FKBP51WT (4.5 nM) with F4 (3 nM), FKBP52WT (400 nM) with F2 (20 nM); implied by Ni-NTA purification) (N); made in house; host or cells: E. coli BL21(DE3)pLysS
T2 sequence (Q02790 50-138 limits assumed): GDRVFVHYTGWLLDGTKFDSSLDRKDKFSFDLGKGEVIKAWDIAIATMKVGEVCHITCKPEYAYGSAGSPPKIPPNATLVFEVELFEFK
The experiment in a line: Fluorescence polarization binding assay, FK1-domain of FKBP52WT with tracer F2 (selectivity FKBP51 vs. FKBP52). Particulars: selectivity factor over FKBP52; compounds B01-C25. The procedure:
as §1, §2, §3, §4, §5
The Selectivity of the Compounds was Classified by Ki(FKBP51)/Ki(FKBP52)
as §6
In general terms: Fluorescence polarisation rises when a labelled molecule tumbles more slowly, as on binding a larger partner.

Take `CC[C@H](NC(=O)[C@@H]1CCCCN1C(=O)[C@H](c1cc(OC)c(OC)c(OC)c1)C1CCCCC1)C(N)=O` [Compound B12, (S)-N-((S)-1-amino-1-oxobutan-2-yl)-1-((S)-2-cyclohexyl-2-(3,4,5-trimethoxyphenyl)acetyl)piperidine-2-carboxamide]: the inhibitory constant (Ki) on FKBP51 lay within 1 to 10 µM. Also, at FKBP52, the “Ki(FKBP51)/Ki(FKBP52)” value is on record as “++ (>50 ++)”.
For `CC[C@@H](NC(=O)[C@@H]1CCCCN1C(=O)[C@H](c1cc(OC)c(OC)c(OC)c1)C1CCCCC1)C(N)=O` [Compound B13, (S)-N-((R)-1-amino-1-oxobutan-2-yl)-1-((S)-2-cyclohexyl-2-(3,4,5-trimethoxyphenyl)acetyl)piperidine-2-carboxamide], in that order: 1 to 10 µM and “++ (>50 ++)”.
The like results for `CC[C@H](C)[C@H](NC(=O)[C@@H]1CCCCN1C(=O)[C@H](c1cc(OC)c(OC)c(OC)c1)C1CCCCC1)C(N)=O` [Compound B14, (S)-N-((2S,3S)-1-amino-3-methyl-1-oxopentan-2-yl)-1-((S)-2-cyclohexyl-2-(3,4,5-trimethoxyphenyl)acetyl)piperidine-2-carboxamide] were, in that order, 1 to 10 µM and “++ (>50 ++)”.
The like results for `CC[C@@H](C)[C@@H](NC(=O)[C@@H]1CCCCN1C(=O)[C@H](c1cc(OC)c(OC)c(OC)c1)C1CCCCC1)C(N)=O` [Compound B15, (S)-N-((2R,3R)-1-amino-3-methyl-1-oxopentan-2-yl)-1-((S)-2-cyclohexyl-2-(3,4,5-trimethoxyphenyl)acetyl)piperidine-2-carboxamide] were, in that order, 1 to 10 µM and “++ (>50 ++)”.
Consider `COc1cc([C@@H](C(=O)N2CCCC[C@H]2C(=O)N[C@H](C(N)=O)C2CCCCC2)C2CCCCC2)cc(OC)c1OC` [Compound B18, (S)-N-((S)-2-amino-1-cyclohexyl-2-oxoethyl)-1-((S)-2-cyclohexyl-2-(3,4,5-trimethoxyphenyl)acetyl)piperidine-2-carboxamide], for which the Ki on FKBP51 lay within 1 to 10 µM. The “Ki(FKBP51)/Ki(FKBP52)” value on FKBP52 is given as “++ (>50 ++)”.
For `COc1cc([C@@H](C(=O)N2CCCC[C@H]2C(=O)N[C@H](CO)C(N)=O)C2CCCCC2)cc(OC)c1OC` [Compound B21, (S)-N-((R)-1-amino-3-hydroxy-1-oxopropan-2-yl)-1-((S)-2-cyclohexyl-2-(3,4,5-trimethoxyphenyl)acetyl)piperidine-2-carboxamide], in that order: 1 to 10 µM and “++ (>50 ++)”.
The like results for `COc1cc([C@@H](C(=O)N2CCCC[C@H]2C(=O)N[C@@H](CO)C(N)=O)C2CCCCC2)cc(OC)c1OC` [Compound B22, (S)-N-((S)-1-amino-3-hydroxy-1-oxopropan-2-yl)-1-((S)-2-cyclohexyl-2-(3,4,5-trimethoxyphenyl)acetyl)piperidine-2-carboxamide] were, in that order, 1 to 10 µM and “++ (>50 ++)”.
In the case of `COc1cc([C@@H](C(=O)N2CCCC[C@H]2C(=O)N[C@@H](CCC(N)=O)C(N)=O)C2CCCCC2)cc(OC)c1OC` [Compound B23, (S)-2-((S)-1-((S)-2-cyclohexyl-2-(3,4,5-trimethoxyphenyl)acetyl)piperidine-2-carboxamido)pentanediamide], on FKBP51, the Ki fell in the range of 10 to 50 µM. Also, the “Ki(FKBP51)/Ki(FKBP52)” value at FKBP52 is listed as “+ (>5 +)”.
For `COc1cc([C@@H](C(=O)N2CCCC[C@H]2C(=O)N[C@H](CCC(N)=O)C(N)=O)C2CCCCC2)cc(OC)c1OC` [Compound B24, (R)-2-((S)-1-((S)-2-cyclohexyl-2-(3,4,5-trimethoxyphenyl)acetyl)piperidine-2-carboxamido)pentanediamide], in that order: 1 to 10 µM and “++ (>50 ++)”.
The like results for `COc1cc([C@@H](C(=O)N2CCCC[C@H]2C(=O)NC(C)(C)CC(N)=O)C2CCCCC2)cc(OC)c1OC` [Compound B25, (S)-N-(4-amino-2-methyl-4-oxobutan-2-yl)-1-((S)-2-cyclohexyl-2-(3,4,5-trimethoxyphenyl)acetyl)piperidine-2-carboxamide] were, in that order, 1 to 10 µM and “+++ (>500 +++)”.
The like results for `COc1cc([C@@H](C(=O)N2CCCC[C@H]2C(=O)NC2(C(N)=O)CC2)C2CCCCC2)cc(OC)c1OC` [Compound B26, (S)-N-(1-carbamoylcyclopropyl)-1-((S)-2-cyclohexyl-2-(3,4,5-trimethoxyphenyl)acetyl)piperidine-2-carboxamide] were, in that order, 10 to 50 µM and “++ (>50 ++)”.
Regarding `COc1cc([C@@H](C(=O)N2CCCC[C@H]2C(=O)NC2(C(N)=O)CCC2)C2CCCCC2)cc(OC)c1OC` [Compound B27, (S)-N-(1-carbamoylcyclobutyl)-1-((S)-2-cyclohexyl-2-(3,4,5-trimethoxyphenyl)acetyl)piperidine-2-carboxamide], the Ki on FKBP51 lay in the range of 1 to 10 µM. In addition, the “Ki(FKBP51)/Ki(FKBP52)” value on FKBP52 is recorded as “++ (>50 ++)”.
For the compound `COc1cc([C@@H](C(=O)N2CCCC[C@H]2C(=O)NC2(C(N)=O)CCCC2)C2CCCCC2)cc(OC)c1OC` [Compound B28, (S)-N-(1-carbamoylcyclopentyl)-1-((S)-2-cyclohexyl-2-(3,4,5-trimethoxyphenyl)acetyl)piperidine-2-carboxamide], the Ki at FKBP51 is 0.1 to 1 µM. Besides, the “Ki(FKBP51)/Ki(FKBP52)” value at FKBP52 is reported as “++++ (>5000 ++++)”.
Take `COc1cc([C@@H](C(=O)N2CCCC[C@H]2C(=O)NCCC(N)=O)C2CCCCC2)cc(OC)c1OC` [Compound B29, (S)-N-(3-amino-3-oxopropyl)-1-((S)-2-cyclohexyl-2-(3,4,5-trimethoxyphenyl)acetyl)piperidine-2-carboxamide]: the Ki at FKBP51 lay in the range of 1 to 10 µM. The “Ki(FKBP51)/Ki(FKBP52)” value at FKBP52 is on record as “++ (>50 ++)”.
For `COc1cc([C@@H](C(=O)N2CCCC[C@H]2C(=O)N[C@@H](CC(C)C)C(N)=O)C2CCCCC2)cc(OC)c1OC` [Compound B30, (S)-N-((S)-1-amino-4-methyl-1-oxopentan-2-yl)-1-((S)-2-cyclohexyl-2-(3,4,5-trimethoxyphenyl)acetyl)piperidine-2-carboxamide], in that order: 1 to 10 µM and “++ (>50 ++)”.
Consider `COc1cc([C@@H](C(=O)N2CCCC[C@H]2C(=O)NC2(C(N)=O)CCCCC2)C2CCCCC2)cc(OC)c1OC` [Compound B31, (S)-N-(1-carbamoylcyclohexyl)-1-((S)-2-cyclohexyl-2-(3,4,5-trimethoxyphenyl)acetyl)piperidine-2-carboxamide], for which, at FKBP51, the Ki is 1 to 10 µM. Further, the “Ki(FKBP51)/Ki(FKBP52)” value at FKBP52 is given as “++ (>50 ++)”.
As for `COc1cc([C@@H](C(=O)N2CCCC[C@H]2C(=O)NC2(C(N)=O)CCOCC2)C2CCCCC2)cc(OC)c1OC` [Compound B32], at FKBP51, the Ki is 10 to 50 µM. Also, the “Ki(FKBP51)/Ki(FKBP52)” value on FKBP52 was “++ (>50 ++)”.
The like results for `COc1cc([C@@H](C(=O)N2CCCC[C@H]2C(=O)NC2(C(=O)NCC(N)=O)CCCC2)C2CCCCC2)cc(OC)c1OC` [Compound B33, (S)-N-(1-((2-amino-2-oxoethyl)carbamoyl)cyclopentyl)-1-((S)-2-cyclohexyl-2-(3,4,5-trimethoxyphenyl)acetyl)piperidine-2-carboxamide] were, in that order, 1 to 10 µM and “+++ (>500 +++)”.
With `COc1cc([C@@H](C(=O)N2CCCC[C@H]2C(=O)N[C@H](Cc2c[nH]cn2)C(N)=O)C2CCCCC2)cc(OC)c1OC` [Compound B34, (S)-N-((R)-1-amino-3-(1H-imidazol-4-yl)-1-oxopropan-2-yl)-1-((S)-2-cyclohexyl-2-(3,4,5-trimethoxyphenyl)acetyl)piperidine-2-carboxamide], on FKBP51, the Ki is 10 to 50 µM. Also, on FKBP52, the “Ki(FKBP51)/Ki(FKBP52)” value was “++ (>50 ++)”.

What is called Ki is a measure of affinity in units of concentration, obtained from inhibition or displacement.

The values above are taken from patent US9845292B2 (Max-Planck-Gesellschaft zur Förderung der Wissenschaften …, priority 2013, dated 2017).
